For one data set, the system named is MDA-MB231. Nature of the data set: SRB antiproliferative assay, MDA-MB231. Format: cell-based, human. Particulars: SRB, 48 h incubation, MDA-MB231 triple-negative breast cancer cells, read-out: GI50 MDA-MB231. As for the experimental part:
(§1) The human breast cancer cell lines MDA-MB468, MDA-MB231 and MCF-7 were purchased from ATCC and maintained in RPMI 1640 medium supplemented with 10% fetal bovine serum (Hyclone, Logan UT) and 2 mM L-glutamine. MCF10A and 184B5 immortalised breast cells were purchased from ATCC and maintained in mammary epithelial basal medium supplemented with an MEGM mammary epithelial singlequot kit (Cambrex). Cells were grown at 37 °C with 5% CO2, 95% air under the humidified conditions. Cell line authentication was carried out by Genetica DNA Laboratories (Burlington, NC) using a short tandem repeat profiling method (March 2015; July 2015; September 2016).
(§2) Cell cytotoxic effects were determined by a SRB-based protocol[2]^,[25].
(§3) The newly synthesised 4-piperazinylquinoline compounds (5–30) were evaluated for their antiproliferative effects using three breast cancer cell lines, for which the compounds were diluted to achieve seven different concentrations ranging from […]. Followed by 48 h incubation with the compound, cells were treated with sulforhodamine B (SRB) to measure their growth/viability (% of the untreated control) by spectrophotometer. The total cellular macromolecules levels known to accurately reflect by UV reading of SRB staining. […] The reference compounds CQ and cisplatin were included for the comparison.
Background: Sulforhodamine B stains cellular protein and so reports cell mass.

The test system of the next data set is MDA-MB468. Nature of the data set: SRB antiproliferative assay, MDA-MB468. Format: cell-based, human. Particulars: SRB, 48 h incubation, MDA-MB468 breast cancer cells, read-out: GI50 MDA-MB468. As for the experimental part: as §1, §2, §3
The subject of the next data set is MCF7. Nature of the data set: SRB antiproliferative assay, MCF7. Format: cell-based, human. Particulars: Homo sapiens; SRB, 48 h incubation, MCF7 breast cancer cells; read-out: GI50 MCF7. As to the method:
as §1, §2, §3

Another data set relates to 184B5. Nature of the data set: SRB antiproliferative assay, 184B5 non-cancer breast cells. Particulars: Homo sapiens; SRB, 48 h incubation, 184B5 non-cancer immortalised breast cells; read-out: GI50 184B5. Format: cell-based, human. As to the method: as §1, §2, §3
(§4) We further assessed their antiproliferative effects on two non-cancer immortalised cell lines (184B5 and MCF10A). […] The antiproliferative effects of compound 23 on cancer cells are thus 7-fold (MDA-MB468 vs MCF10A) to 11-fold (MDA-MB231 vs 184B5) higher than matching non-cancer breast cells, which may indicate that compound 23 could potentially be safer than other compounds. Therefore, we examined it further to gain insights into its molecular mechanism of action.

Another data set concerns MCF10A. Kind of data set: SRB antiproliferative assay, MCF10A non-cancer breast cells. Type of data set: cell-based, human. Particulars: Homo sapiens, MCF-10A; SRB, 48 h incubation, MCF10A non-cancer immortalised breast cells; read-out: GI50 MCF10A. As to the method: as §1, §2, §3, §4
The test system of the next data set is MCF7 breast cancer cells. Kind of data set: Plasma membrane integrity staining (EtBr, AO, CellMask) of MCF7 cells. Type of data set: cell-based, human. As for the experimental part:
(§5) Lysosomal and AO staining were carried out as described previously. Mitochondrial staining with MitoTracker was carried out as described previously. Briefly, cells were plated on a poly-D-lysine pre-coated 1.8-cm sterile glass coverslip that had been placed in a well of a 6-well clustered dish. Cells were then incubated with 50 nM MitoTracker Red (ThermoFisher) for 30 min in a cell culture incubator. Plasma membrane staining was carried out with lipid-specific CellMask (Molecular probes, Life Technologies), according to the manufacturer’s instruction. For actin staining, cells fixed with 4% formaldehyde were incubated with phalloidin conjugated with Fitc (green) for 30 min. For nuclear staining, cells were incubated with 5 µM of DRAQ5 (blue) for 5 min.
However, it is currently unclear how lipid molecules are found throughout the entire cytoplasm. […] In addition, cells treated with compound 23 are often enlarged and flattened, and contained multi-nuclei. In addition, many small vacuoles are found in the cytoplasm of these cells (Figure 4(a–c)). All of these phenomena are likely leading to eventual cancer cell demise in the presence of compound 23.
Figure 4. […] (a) MCF7 cell morphology changes in the presence of compound 23. MCF7 cells were sham treated or treated with compound 23 for 48 h, followed by staining with either EtBr. […]

Data set [1] deals with breast cancer and non-cancer breast cell lines. Nature of the data set: SRB antiproliferative comparison of breast cancer and non-cancer breast cell lines. Type of data set: cell-based, human. As to the method: as §1, §2, §3, §4
The next data set deals with MCF7 cells. Kind of data set: Mitochondrial (MitoTracker) and lysosomal (LysoTracker) staining of MCF7 cells. Format: cell-based, human. As to the method:
as §5
It should be noted that these abnormalities could occur if the membranes of these organelles are compromised. Thus, the molecular target of compound 23 is likely a common element found in the membranes of cytoplasm, mitochondria and lysosomes, but not in the nuclear membrane as it is not compromised in the presence of compound 23 (Figures 4–6).
Figure 5. Mitochondrial membrane may be compromised in the presence of compound 23. […] (b) Mitochondria are aggregated and disorganized in the presence of compound 23. MCF7 mitochondria and nuclei were stained with MitoTracker and DRAQ5, respectively, as descried in Materials and methods.
Figure 6. […]

Here are results for one compound from publication PMC6366420, “Design and synthesis of 4-piperazinyl quinoline derived urea/thioureas for anti-breast cancer activity by a hybrid pharmacophore approach” (Journal of Enzyme Inhibition and Medicinal Chemistry, 2019).

Read-outs that look alike come from different tables or passages of the source.

`S=C(NCCN1CCOCC1)N1CCN(c2ccnc3cc(Cl)ccc23)CC1` [Compound 23, 4-(7-Chloro-quinolin-4-yl)-piperazine-1-carbothioic acid (2-morpholin-4-yl-ethyl)-amide] returned a melting point of 114 to 115 °C. In addition, the GI50 in the data set on MDA-MB231 (Homo sapiens, MDA-MB-231, 48 h) is 5.3 µM. Moreover, the GI50 in the data set on MDA-MB231 is 3 ± 0.1 µM. Besides, the GI50 in the data set on MDA-MB468 (Homo sapiens, MDA-MB-468, 48 h) came to 4.7 µM. In the data set with MDA-MB468, the GI50 worked out at 4.6 ± 0.6 µM. Moreover, in the data set on MCF7, the GI50 was determined as 4.5 ± 0.1 µM. For the same compound, the 50% growth inhibitory concentration (GI50) in the data set on 184B5 came out at 34.4 ± 0.6 µM. In addition, the GI50 with MCF10A came out at 32.3 ± 0.8 µM. Further, the “cells showing compromised plasma membrane phenotypes” value in the data set with MCF7 breast cancer cells (MCF7, of 500 cells examined, 24-h post treatment) was 42.4 ± 4.8%. Further, in the data set with MCF7 breast cancer cells (MCF7 cells, treated 48 h, vs Sham control), the “ethidium bromide uptake / plasma membrane integrity (in words)” value was “readily uptake ethidium bromide”. Besides, the “antiproliferative effect on cancer cells higher than matching non-cancer breast cells” value in data set [1] (MDA-MB231 vs 184B5) amounted to 11 fold. Further, in [1] (MDA-MB468 vs MCF10A), the “antiproliferative effect on cancer cells higher than matching non-cancer breast cells” value was found to be 7 fold. Moreover, in data set [1] (breast cancer cell lines, GI50 comparison), the “higher activity than the reference compounds cisplatin and CQ” value was 4-8 fold. Further, in data set [1] (overall range, cancer vs non-cancer breast cells), the “antigrowth/cell-killing activity higher on cancer than non-cancer cells” value was 7-11 fold. In addition, the “antigrowth effect against cancer versus non-cancer cells (in words)” value in [1] (three breast cancer lines vs 184B5 and MCF10A) is given as “much stronger activities against cancer than non-cancer cells”. Also, the “mitochondrial and lysosomal volumes (in words)” value in the data set with MCF7 cells is “substantial increases in mitochondrial and lysosomal volumes”.

By GI50 is commonly meant the concentration that inhibits growth by half. The melting point is the temperature, or range, at which the solid turns liquid.
